Laboratory results reported in PMC10762068, “Selective blockade of Cav1.2 (α1C) versus Cav1.3 (α1D) L-type calcium channels by the black mamba toxin calciseptine” (Nature Communications, 2024).
Entries after “also recorded” stand apart in the source; their conditions may differ. Read-outs that look alike come from different tables or passages of the source. Positions of bridges follow the written chain, without caps; N, C: chain ends. No end group written: not given here.

Assays:
[1] = test system: Cav1.2 (ICav1.2) in isolated adult mouse ventricular myocytes; format: cell-based
[2] = target: T1, Cav1.2 (Homo sapiens, UniProt Q13936); assay: cell-based; format: cell-based; settings: for L-type Ca2+ current density: mean ± SEM, n=11
T1 construct: expressed in transfected cells; host or cells: HEK-293T
Description: HEK-293T (RRID:CVCL_2737) were obtained from the European Collection of Authenticated Cell Cultures (ECACC 96121229). The identity of HEK-293T has been confirmed by STR profiling and the cells have been eradicated from mycoplasma at ECACC. We routinely tested the cells for the absence of the mycoplasma contamination. Cells were cultivated at 37 °C in DMEM supplemented with GlutaMax, 10% fetal bovine serum and 1% penicillin/streptomycin (Invitrogen, Fisher Scientific, France). Transfections were performed using jet-PEI (Ozyme, France) with a DNA mix containing either the plasmids that code for Cav1.2-GFP, β2a and α2δ (0.8 µg of each) or either the plasmids that code for Cav1.3 (with and without exon 42a), or Cav2.1, or either Cav2.2 combined with β2a and α2δ (0.8 µg of each supplemented with 0.025 µg of a plasmid coding for GFP). For Cav3.1 expression β2a and α2δ subunits were omitted. Plasmids coding for β2a, α2δ and Cav1.3 were created as described previously. Plasmid coding for Cav1.2-GFP was obtained from Dr. Catalucci[60]. After transfection cells were placed at 30 °C for 2–3 days and dissociated with Versene (Invitrogen, Fisher Scientific, France) and plated at a density of ~35 × 10^3 cells per 35 mm Petri dish for electrophysiological recordings, which were performed the following day.
Macroscopic currents in HEK-293T cells were recorded at room temperature using an Axopatch 200B or Multiclamp 700B patchclamp amplifier (Molecular Devices, Sunnyvale CA). […] The extracellular solution contained (in mM): 135 NaCl, 20 TEACl, 5 BaCl2, 1 MgCl2, and 10 HEPES (pH adjusted to 7.25 with KOH, ~330 mOsm).
In all experiments of cellular electrophysiology, we employed synthetized analog of Cas, commercially available at Latoxan (ID: L8109). The native peptide was purified from the venom of Dendroaspis polylepis purchased from Latoxan, as previoulsly described. The pure peptide was obtained after gel filtration, cation exchange and C18 reversed phase chromatography.

[3] = test system: human ether-a-go-go-related gene (hERG); assay: hERG current in Xenopus oocytes; format: cell-based; settings: Cas 1 µM, n=5, Xenopus oocytes, 19-20 °C
Description: Xenopus laevis specimen were purchased from Tefor Paris Saclay. Animal handling and experiments fully conformed to French regulations and were approved by local governmental veterinary services (authorization number E06-152-5 delivered by the Ministère de l’Agriculture, Direction des Services Vétérinaires). Animals were anesthetized by exposure for 20 min to a 0.1% solution of 3-aminobenzoic acid ethyl ester (MS-222) (Sigma) buffered at pH 7.4. Oocytes were surgically removed and dissected away in a saline solution (ND96) containing (in mM) 96 NaCl, 2 KCl, 1.8 CaCl2, 2 MgCl2, and 5 HEPES at pH 7.4 with NaOH. Stage V and VI oocytes were treated for 3 h with collagenase (1 mg/ml, type Ia, Sigma) in the presence of trypsin inhibitor (Sigma) in ND96 to discard follicular cells. pSI-HERG plasmid solutions were injected in nucleus (100 ng/µl, 23 nl/oocyte) using a pressure microinjector. The oocytes were kept at 19 °C in the ND96 saline solution supplemented with penicillin (10 mg/L) and streptomycin (20 mg/L). Oocytes were studied within 2 days following injection of plasmid. In a 0.3-ml perfusion chamber, a single oocyte was impaled with two standard glass microelectrodes (1–2.5 MΩ resistance) filled with 3 M KCl and maintained under voltage- clamp using a Dagan TEV 200 amplifier. […]

[4] = test system: N-type Ca^2+ channel; settings: cited from earlier work
Description: (§1) Animal venoms constitute an immense reservoir for identification of new toxins and toxin-derived tools for modulating the physiological function of ion channels. In particular, toxins showing three-fingers molecular scaffold class include several cardiotoxic peptides that abound in snake venoms. Three fingers toxin peptides potently block a variety of proteins including nicotinic receptors, acetylcholinesterase, acid-sensitive ion channels (ASIC)[14], as well as cytotoxins that disrupt the lipid membrane. More than 30 years ago, M. Lazdunski ‘s group purified a 60-amino acid three- ...

[5] = test system: T-type Ca^2+ channel; settings: cited from earlier work
Description: as §1

[6] = test system: cardiac contractions; settings: cited from earlier work
Description: as §1

[7] = test system: portal vein, thoracic aorta and uterine smooth muscle; settings: cited from earlier work
Description: as §1

[8] = test system: skeletal muscle (Cav1.1) L-type Ca^2+ channel; settings: cited from earlier work
Description: as §1

[9] = test system: voltage sensitive K^+ channels; settings: cardiac ventricular cells, NlE115 neuroblastoma cells, RINmSF and HIT insulinomas, chicken dorsal root ganglia; cited from earlier work
Description: as §1

[10] = test system: voltage sensitive Na^+ channels; settings: cardiac ventricular cells, NlE115 neuroblastoma cells, RINmSF and HIT insulinomas, chicken dorsal root ganglia; cited from earlier work
Description: as §1

[11] = HEK-293T, read-out: inhibition of ICav1.2

T1 sequence (Q13936 whole entry): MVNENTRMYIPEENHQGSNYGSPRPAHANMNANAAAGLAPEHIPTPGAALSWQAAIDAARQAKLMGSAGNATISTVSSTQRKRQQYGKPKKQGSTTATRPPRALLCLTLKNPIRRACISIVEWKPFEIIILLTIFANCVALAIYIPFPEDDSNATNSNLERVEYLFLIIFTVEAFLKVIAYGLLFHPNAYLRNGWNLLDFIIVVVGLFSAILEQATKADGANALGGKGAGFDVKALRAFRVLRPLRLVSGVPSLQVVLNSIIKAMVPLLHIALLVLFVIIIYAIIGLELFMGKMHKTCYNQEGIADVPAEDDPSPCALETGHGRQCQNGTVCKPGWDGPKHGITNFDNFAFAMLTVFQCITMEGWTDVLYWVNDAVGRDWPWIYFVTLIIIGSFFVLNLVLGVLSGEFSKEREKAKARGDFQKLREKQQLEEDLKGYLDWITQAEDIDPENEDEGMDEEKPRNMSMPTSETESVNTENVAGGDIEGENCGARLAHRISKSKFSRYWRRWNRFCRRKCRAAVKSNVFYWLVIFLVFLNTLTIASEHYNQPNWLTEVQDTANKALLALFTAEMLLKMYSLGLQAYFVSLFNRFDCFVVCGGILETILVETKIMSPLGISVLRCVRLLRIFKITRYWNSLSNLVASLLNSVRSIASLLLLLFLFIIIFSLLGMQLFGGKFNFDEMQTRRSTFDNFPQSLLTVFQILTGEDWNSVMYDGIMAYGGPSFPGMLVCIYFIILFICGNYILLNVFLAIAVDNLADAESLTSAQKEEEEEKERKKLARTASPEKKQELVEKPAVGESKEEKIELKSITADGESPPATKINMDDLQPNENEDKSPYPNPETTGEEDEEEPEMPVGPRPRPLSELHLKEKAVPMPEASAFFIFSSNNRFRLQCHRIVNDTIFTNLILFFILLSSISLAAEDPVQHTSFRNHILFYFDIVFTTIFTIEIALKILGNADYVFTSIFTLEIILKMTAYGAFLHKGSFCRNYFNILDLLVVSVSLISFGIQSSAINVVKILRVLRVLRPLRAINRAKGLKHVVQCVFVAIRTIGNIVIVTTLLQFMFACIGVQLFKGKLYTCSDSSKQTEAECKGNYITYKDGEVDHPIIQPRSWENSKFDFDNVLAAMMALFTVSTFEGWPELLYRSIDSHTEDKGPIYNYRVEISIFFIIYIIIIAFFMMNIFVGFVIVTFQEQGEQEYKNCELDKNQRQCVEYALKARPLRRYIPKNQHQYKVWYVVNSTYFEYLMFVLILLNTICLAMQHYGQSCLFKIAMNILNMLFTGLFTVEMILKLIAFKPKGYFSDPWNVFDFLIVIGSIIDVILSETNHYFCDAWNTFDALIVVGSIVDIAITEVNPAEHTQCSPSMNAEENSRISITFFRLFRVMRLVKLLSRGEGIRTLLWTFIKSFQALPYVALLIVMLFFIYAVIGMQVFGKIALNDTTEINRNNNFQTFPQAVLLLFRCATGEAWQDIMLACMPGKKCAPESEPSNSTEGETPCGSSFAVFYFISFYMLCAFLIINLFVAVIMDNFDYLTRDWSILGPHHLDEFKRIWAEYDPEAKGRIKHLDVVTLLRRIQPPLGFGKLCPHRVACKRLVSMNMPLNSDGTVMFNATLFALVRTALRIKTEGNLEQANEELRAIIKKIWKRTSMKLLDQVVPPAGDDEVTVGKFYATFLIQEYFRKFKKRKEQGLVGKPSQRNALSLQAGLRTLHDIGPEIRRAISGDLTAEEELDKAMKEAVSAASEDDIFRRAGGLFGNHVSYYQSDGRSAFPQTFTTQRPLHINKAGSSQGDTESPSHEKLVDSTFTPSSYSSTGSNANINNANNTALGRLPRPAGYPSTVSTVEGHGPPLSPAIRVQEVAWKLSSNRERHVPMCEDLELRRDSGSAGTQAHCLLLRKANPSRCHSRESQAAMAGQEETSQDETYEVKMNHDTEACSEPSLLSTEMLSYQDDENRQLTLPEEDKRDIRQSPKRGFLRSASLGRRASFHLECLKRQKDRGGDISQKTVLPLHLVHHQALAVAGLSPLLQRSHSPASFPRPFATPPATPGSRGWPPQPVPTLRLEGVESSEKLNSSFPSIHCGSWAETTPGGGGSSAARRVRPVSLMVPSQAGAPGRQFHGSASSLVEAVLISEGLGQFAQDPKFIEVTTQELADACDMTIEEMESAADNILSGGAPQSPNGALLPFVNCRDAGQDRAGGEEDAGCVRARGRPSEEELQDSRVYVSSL
T1 sequence (Q08289 whole entry partner): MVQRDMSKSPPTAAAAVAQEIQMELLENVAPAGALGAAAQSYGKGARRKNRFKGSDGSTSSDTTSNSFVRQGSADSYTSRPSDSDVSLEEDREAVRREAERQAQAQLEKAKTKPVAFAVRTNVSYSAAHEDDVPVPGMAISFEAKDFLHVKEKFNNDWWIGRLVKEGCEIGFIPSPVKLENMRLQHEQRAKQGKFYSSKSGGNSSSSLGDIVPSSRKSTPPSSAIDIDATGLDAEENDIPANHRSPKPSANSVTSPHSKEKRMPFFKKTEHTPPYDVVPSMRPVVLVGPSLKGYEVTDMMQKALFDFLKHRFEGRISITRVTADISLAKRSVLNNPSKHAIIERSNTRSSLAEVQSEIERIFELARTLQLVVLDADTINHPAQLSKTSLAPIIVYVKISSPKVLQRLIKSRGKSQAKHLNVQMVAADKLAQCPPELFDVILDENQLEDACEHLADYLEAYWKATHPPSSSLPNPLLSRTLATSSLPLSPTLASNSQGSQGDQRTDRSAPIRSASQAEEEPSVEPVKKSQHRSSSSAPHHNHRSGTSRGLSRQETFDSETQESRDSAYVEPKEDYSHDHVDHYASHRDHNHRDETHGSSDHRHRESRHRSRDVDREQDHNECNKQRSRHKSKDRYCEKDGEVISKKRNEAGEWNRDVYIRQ
T1 sequence (P54289 25-956 partner limits assumed): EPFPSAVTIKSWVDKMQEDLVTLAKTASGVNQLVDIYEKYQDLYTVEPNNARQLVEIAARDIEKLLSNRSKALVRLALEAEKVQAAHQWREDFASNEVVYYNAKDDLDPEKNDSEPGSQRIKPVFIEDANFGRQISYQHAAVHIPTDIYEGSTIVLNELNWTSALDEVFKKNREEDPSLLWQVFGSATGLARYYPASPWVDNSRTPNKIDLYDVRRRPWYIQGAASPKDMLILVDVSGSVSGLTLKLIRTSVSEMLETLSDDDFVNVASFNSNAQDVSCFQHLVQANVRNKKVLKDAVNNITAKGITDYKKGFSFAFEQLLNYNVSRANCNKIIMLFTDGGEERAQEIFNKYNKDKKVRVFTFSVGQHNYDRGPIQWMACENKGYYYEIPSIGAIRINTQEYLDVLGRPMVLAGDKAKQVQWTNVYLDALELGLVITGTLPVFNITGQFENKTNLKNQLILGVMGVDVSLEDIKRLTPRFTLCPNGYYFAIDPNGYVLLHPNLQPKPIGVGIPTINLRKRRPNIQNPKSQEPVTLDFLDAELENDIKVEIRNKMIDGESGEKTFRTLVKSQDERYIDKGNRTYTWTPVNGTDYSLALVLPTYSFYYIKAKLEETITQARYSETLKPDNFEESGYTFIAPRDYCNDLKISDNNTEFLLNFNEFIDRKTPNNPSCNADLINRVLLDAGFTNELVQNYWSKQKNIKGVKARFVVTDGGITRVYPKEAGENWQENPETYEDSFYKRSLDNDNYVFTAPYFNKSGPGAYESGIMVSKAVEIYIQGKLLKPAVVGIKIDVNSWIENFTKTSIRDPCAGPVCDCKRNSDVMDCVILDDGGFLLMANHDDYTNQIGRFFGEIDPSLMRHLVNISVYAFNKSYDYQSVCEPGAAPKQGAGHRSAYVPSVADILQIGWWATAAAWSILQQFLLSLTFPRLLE
T1 sequence (P54289 957-1103 partner limits assumed): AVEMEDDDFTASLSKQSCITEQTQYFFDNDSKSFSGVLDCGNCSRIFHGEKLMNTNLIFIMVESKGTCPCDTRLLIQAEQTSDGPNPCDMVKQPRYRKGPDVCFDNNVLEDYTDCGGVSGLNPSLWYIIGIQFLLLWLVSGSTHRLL

RICYIHKASLPRATKTCVENTCYKMFIRTQREYISERGCGCPTAMWPYQTECCKGDRCNK (disulfide 3-22, 17-39, 41-52, 53-58 (inferred)) [Cas, calciseptine]
L-type Ca2+ current density ([1]; Cas 100 nM alone or + Nife 3 µM, +10 mV, Ctrl -9.81±1.32, n=9): -6.14±1.02 pA/pF
L-type Ca2+ current density ([1]; Cas 100 nM alone or + Nife 3 µM, +20 mV, Ctrl -8.04±1.33, n=9): -5.17±0.93 pA/pF
L-type Ca2+ current density ([1]; Cas 100 nM alone or + Nife 3 µM, +40 mV, Ctrl -3.68±0.68, n=9): -2.24±0.46 pA/pF
L-type Ca2+ current density ([1]; Cas 100 nM alone or + Nife 3 µM, -10 mV, Ctrl -5.27±0.86, n=9): -3.45±0.54 pA/pF
L-type Ca2+ current density ([1]; Cas 100 nM alone or + Nife 3 µM, -20 mV, Ctrl -1.26±0.27, n=9): -1.21±0.20 pA/pF
reduction of ICav1.2 ([1]; Cas 100 nM, 300 nM, 1 µM, voltages −25 mV to +40 mV, holding −55 mV): dose-dependently reduced
L-type Ca2+ current density ([1]; Cas 300 nM alone or + Nife 3 µM, 0 mV, Ctrl -10.51±1.51, n=7): -3.07±0.59 pA/pF
L-type Ca2+ current density ([1]; Cas 300 nM alone or + Nife 3 µM, +10 mV, Ctrl -10.15±1.38, n=7): -3.66±0.55 pA/pF
L-type Ca2+ current density ([1]; Cas 300 nM alone or + Nife 3 µM, +20 mV, Ctrl -8.09±1.11, n=7): -3.32±0.45 pA/pF
L-type Ca2+ current density ([1]; Cas 300 nM alone or + Nife 3 µM, +40 mV, Ctrl -3.36±0.49, n=7): -1.58±0.23 pA/pF
L-type Ca2+ current density ([1]; Cas 300 nM alone or + Nife 3 µM, -10 mV, Ctrl -6.58±1.29, n=7): -1.63±0.37 pA/pF
L-type Ca2+ current density ([1]; Cas 300 nM alone or + Nife 3 µM, -20 mV, Ctrl -2.02±0.86, n=7): -0.52±0.07 pA/pF
L-type Ca2+ current density ([1]; Cas 1 µM alone or + Nife 3 µM, 0 mV, Ctrl -9.85±1.04, n=6): -2.28±0.33 pA/pF
L-type Ca2+ current density ([1]; Cas 1 µM alone or + Nife 3 µM, +10 mV, Ctrl -8.83±1,09, n=6): -3.38±0.15 pA/pF
L-type Ca2+ current density ([1]; Cas 1 µM alone or + Nife 3 µM, +20 mV, Ctrl -6.41±0.90, n=6): -3.38±0.12 pA/pF
L-type Ca2+ current density ([1]; Cas 1 µM alone or + Nife 3 µM, +40 mV, Ctrl -2.75±0.60, n=6): -1.35±0.11 pA/pF
L-type Ca2+ current density ([1]; Cas 1 µM alone or + Nife 3 µM, -10 mV, Ctrl -7.71±0.98, n=6): -0.87±0.23 pA/pF
L-type Ca2+ current density ([1]; Cas 1 µM alone or + Nife 3 µM, -20 mV, Ctrl -3.53±0.98, n=6): -0.34±0.07 pA/pF
effect on outward-going ICav1.2 at +150 mV ([2]; Cas 300 nM, n=6/N=3, holding -60 mV): almost no effect
L-type Ca2+ current density ([2]; Cas 300 nM, 0 mV, Ctrl -9.25± 2,32): -3.32± 0.87 pA/pF
L-type Ca2+ current density ([2]; Cas 300 nM, +10 mV, Ctrl -9.90± 1,94): -3.92± 0.94 pA/pF
L-type Ca2+ current density ([2]; Cas 300 nM, +20 mV, Ctrl -8.05± 1.41): -3.08± 0.77 pA/pF
L-type Ca2+ current density ([2]; Cas 300 nM, +30 mV, Ctrl -4.66± 0.82): -1.53± 0.51 pA/pF
L-type Ca2+ current density ([2]; Cas 300 nM, -10 mV, Ctrl -5.72± 1.83): -1.76± 0.46 pA/pF
L-type Ca2+ current density ([2]; Cas 300 nM, -20 mV, Ctrl -1.41± 0.28): -0.70± 0.17 pA/pF
inhibition at 0.1 µM [2, 11]: 37%
inhibition at 0.3 µM [2, 11]: 70%
inhibition at 1 µM [2, 11]: 80%
inhibition at 0.3 µM ([2]; HEK-293T, read-out: inhibition of ICav1.2 (I-V relationship)): ~60%
V0.5 for activation ([2]; during Cas application, control −3 ± 2 mV, n = 8, Wilcoxon p = 0.0078): 3 ± 2 mV
effect on hERG current [3]: did not record any difference; also recorded: had no effect
effect on N-type Ca2+ channel [4]: without affecting
effect on T-type Ca2+ channel [5]: without affecting
effect on cardiac contractions [6]: completely eliminate cardiac contractions
effect on smooth muscle contraction [7]: abolish all contraction
effect on skeletal muscle (Cav1.1) L-type Ca2+ channel [8]: without affecting
effect on voltage sensitive K+ channels [9]: does not affect
effect on voltage sensitive Na+ channels [10]: does not affect
